Reference: article PMC8669469, “A Novel Locally c-di-GMP-Controlled Exopolysaccharide Synthase Required for Bacteriophage N4 Infection of Escherichia coli” (mBio, 2021)

Biological target: T1, NfrB (Escherichia coli, UniProt P0AFA5)
T1 construct: soluble MshEN domain, NfrB^414-745
Assay: microscale thermophoresis with purified protein; DRaCALA with […]-c-di-GMP and competition by unlabeled c-di-GMP
Assay type: binding

T1 sequence (P0AFA5 414-745): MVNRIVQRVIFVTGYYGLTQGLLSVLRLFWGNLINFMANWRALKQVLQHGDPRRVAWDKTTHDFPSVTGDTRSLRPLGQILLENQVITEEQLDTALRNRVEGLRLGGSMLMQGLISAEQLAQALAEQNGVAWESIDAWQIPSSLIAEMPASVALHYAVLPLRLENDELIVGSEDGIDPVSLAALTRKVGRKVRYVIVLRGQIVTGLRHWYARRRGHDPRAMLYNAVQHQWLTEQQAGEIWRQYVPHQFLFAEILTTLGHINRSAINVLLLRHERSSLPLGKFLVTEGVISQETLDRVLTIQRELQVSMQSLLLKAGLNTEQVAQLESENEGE

## Nc1nc2c(ncn2[C@@H]2O[C@@H]3CO[P@](=O)(O)O[C@H]4[C@@H](O)[C@H](n5cnc6c(=O)[nH]c(N)nc65)O[C@@H]4CO[P@](=O)(O)O[C@H]3[C@H]2O)c(=O)[nH]1 [c-di-GMP]
  Kd: 1000 ± 350 nM
